From ChEMBL document CHEMBL5537118, “Synthesis of cinnamoyl tethered indoline derivatives with anti-inflammatory and antioxidant activities” (Eur J Med Chem, 2024)
Activity calls are given as the source filed them. The calls are words filed in the database; no cut-off is given here.

Assays:
Mus musculus [1] = assay: Antiinflammatory activity in carrageenan-induced Kunming mouse model of paw edema assessed as paw volume at 1 mg/kg, ip pretreated for 1 hr followed by carrageenan administration and measured immediately by digital plethysmometer (reference value: 0.116 +/- 0.042 mL); type: functional
Mus musculus [2] = assay: Antiinflammatory activity in carrageenan-induced Kunming mouse model of paw edema assessed as paw volume at 10 mg/kg, ip pretreated for 1 hr followed by carrageenan administration and measured after 1 hr by digital plethysmometer (reference value: 0.395 +/- 0.017 mL); type: functional; conditions: time 2 hrs
RAW264.7 [3] = assay: Antioxidant activity in H2O2-stimulated mouse RAW264.7 cells assessed as protection against cell damage at 2 to 5 uM pretreated for 30 mins followed by H2O2 stimulation and measured after 4 hrs by MTT assay; type: functional, cell-based; conditions: dose 2-5 µM, time 4.5 hrs
[4] = Cytotoxicity against mouse RAW264.7 cells assessed as cell viability at 2 to 10 uM measured after 24 hrs; type: toxicity, cell-based; conditions: dose 2-10 µM, read-out: Activity
RAW264.7 [5] = assay: Inhibition of ROS burst in rotenone-stimulated mouse RAW264.7 cells assessed as reduction in ROS level at 0.5 to 2 uM pretreated for 30 mins followed by rotenone addition and measured after 4 hrs by DCFH-DA staining based flow cytometry analysis; type: functional, cell-based; conditions: dose 0.5-2 µM, time 4.5 hrs
RAW264.7 [6] = assay: Effect on HO-1 protein expression in mouse RAW264.7 cells at 0.5 to 2 uM incubated for 24 hrs by Western blot analysis; type: functional, cell-based; conditions: dose 0.5-2 µM
RAW264.7 [7] = assay: Antioxidant activity in LPS-induced mouse RAW264.7 cells assessed as upregulation of HO-1 protein expression incubated for 24 hrs by Western blot analysis; type: functional, cell-based; conditions: dose 0.5-2 µM
RAW264.7 [8] = assay: Antiinflammatory activity in LPS-induced mouse RAW264.7 cells assessed as reduction in IL-6 level incubated for 24 hrs by ELISA; type: functional, cell-based
RAW264.7 [9] = assay: Inhibition of NF-kappaB activation in LPS-induced mouse RAW264.7 cells assessed as reduction in IkappaBalpha degradation at 0.5 to 2 uM by Western blot analysis; type: cell-based; conditions: dose 0.5-2 µM
RAW264.7 [10] = assay: Inhibition of NF-kappaB activation in LPS-induced mouse RAW264.7 cells assessed as inhibition of IkappaBalpha phosphorylation by measuring reduction in p-IkappaBalpha/IkappaBalpha expression at 0.5 to 2 uM by Western blot analysis; type: cell-based; conditions: dose 0.5-2 µM
RAW264.7 [11] = assay: Effect on p65 total protein expression in LPS-induced mouse RAW264.7 cells at 0.5 to 2 uM by Western blot analysis; type: functional, cell-based; conditions: dose 0.5-2 µM
RAW264.7 [12] = assay: Inhibition of NF-kappaB activation in LPS-induced mouse RAW264.7 cells assessed as inhibition of p65 phosphorylation by measuring reduction in p-p65/p65 expression at 0.5 to 2 uM by Western blot analysis; type: cell-based; conditions: dose 0.5-2 µM
Mus musculus [13] = assay: Antiinflammatory activity in carrageenan-induced Kunming mouse model of paw edema assessed as paw volume at 10 mg/kg, ip pretreated for 1 hr followed by carrageenan administration and measured immediately by digital plethysmometer (reference value: 0.116 +/- 0.042 mL); type: functional
Mus musculus [14] = assay: Antiinflammatory activity in carrageenan-induced Kunming mouse model of paw edema assessed as paw volume at 1 mg/kg, ip pretreated for 1 hr followed by carrageenan administration and measured after 1 hr by digital plethysmometer (reference value: 0.395 +/- 0.017 mL); type: functional; conditions: time 2 hrs
Mus musculus [15] = assay: Antiinflammatory activity in carrageenan-induced Kunming mouse model of paw edema assessed as paw volume at 30 mg/kg, ip pretreated for 1 hr followed by carrageenan administration and measured after 1 hr by digital plethysmometer (reference value: 0.395 +/- 0.017 mL); type: functional; conditions: time 2 hrs
Mus musculus [16] = assay: Antiinflammatory activity in carrageenan-induced Kunming mouse model of paw edema assessed as paw volume at 10 mg/kg, ip pretreated for 1 hr followed by carrageenan administration and measured after 3 hrs by digital plethysmometer (reference value: 0.377 +/- 0.018 mL); type: functional; conditions: time 4 hrs
Mus musculus [17] = assay: Antiinflammatory activity in carrageenan-induced Kunming mouse model of paw edema assessed as paw volume at 30 mg/kg, ip pretreated for 1 hr followed by carrageenan administration and measured after 3 hrs by digital plethysmometer (reference value: 0.377 +/- 0.018 mL); type: functional; conditions: time 4 hrs
Mus musculus [18] = assay: Antiinflammatory activity in carrageenan-induced Kunming mouse model of paw edema assessed as paw volume at 10 mg/kg, ip pretreated for 1 hr followed by carrageenan administration and measured after 5 hrs by digital plethysmometer (reference value: 0.362 +/- 0.016 mL); type: functional; conditions: time 6 hrs
Mus musculus [19] = assay: Antiinflammatory activity in carrageenan-induced Kunming mouse model of paw edema assessed as paw volume at 30 mg/kg, ip pretreated for 1 hr followed by carrageenan administration and measured after 5 hrs by digital plethysmometer (reference value: 0.362 +/- 0.016 mL); type: functional; conditions: time 6 hrs
Mus musculus [20] = assay: Antiinflammatory activity in carrageenan-induced Kunming mouse model of paw edema assessed as edema inhibition at 1 mg/kg, ip pretreated for 1 hr followed by carrageenan administration and measured after 1 hr relative to control; type: functional; conditions: time 2 hrs
Mus musculus [21] = assay: Antiinflammatory activity in carrageenan-induced Kunming mouse model of paw edema assessed as edema inhibition at 10 mg/kg, ip pretreated for 1 hr followed by carrageenan administration and measured after 3 hrs relative to control; type: functional; conditions: time 4 hrs
Mus musculus [22] = assay: Antiinflammatory activity in carrageenan-induced Kunming mouse model of paw edema assessed as edema inhibition at 10 mg/kg, ip pretreated for 1 hr followed by carrageenan administration and measured after 5 hrs relative to control; type: functional; conditions: time 6 hrs
Mus musculus [23] = assay: Antiinflammatory activity in carrageenan-induced Kunming mouse model of paw edema assessed as paw volume at 30 mg/kg, IG pretreated for 1 hr followed by carrageenan administration and measured immediately by digital plethysmometer (reference value: 0.144 +/- 0.026 mL); type: functional
Mus musculus [24] = assay: Antiinflammatory activity in carrageenan-induced Kunming mouse model of paw edema assessed as paw volume at 30 mg/kg, IG pretreated for 1 hr followed by carrageenan administration and measured after 1 hr by digital plethysmometer (reference value: 0.407 +/- 0.023 mL); type: functional; conditions: time 2 hrs
Mus musculus [25] = assay: Antiinflammatory activity in carrageenan-induced Kunming mouse model of paw edema assessed as edema inhibition at 30 mg/kg, IG pretreated for 1 hr followed by carrageenan administration and measured after 5 hrs relative to control; type: functional; conditions: po, time 6 hrs
Mus musculus [26] = assay: Antiinflammatory activity in carrageenan-induced Kunming mouse model of paw edema assessed as reduction in iNOS protein expression in paw tissue at 1 to 30 mg/kg, ip pretreated for 1 hr followed by carrageenan administration and measured after 5 hrs by Western blot analysis; type: functional, organism-based; conditions: dose 1-30 mg/kg, time 6.0 hrs
Mus musculus [27] = assay: Antioxidant activity in carrageenan-induced Kunming mouse model of paw edema assessed as reduction in MDA level in paw tissue at 1 to 30 mg/kg, ip pretreated for 1 hr followed by carrageenan administration and measured after 5 hrs by ELISA; type: functional, organism-based; conditions: dose 1-30 mg/kg, time 6.0 hrs
Mus musculus [28] = assay: Antioxidant activity in carrageenan-induced Kunming mouse model of paw edema assessed as increase in SOD activity in paw tissue at 1 to 30 mg/kg, ip pretreated for 1 hr followed by carrageenan administration and measured after 5 hrs by ELISA; type: functional, organism-based; conditions: dose 1-30 mg/kg, time 6.0 hrs

For `O=C(/C=C/c1ccc(O)c(O)c1)NCCCN1CCc2cc(Cl)ccc21`, the Activity (Mus musculus [1]) was 0.131 mL, the Activity (Mus musculus [2]) was 0.189 mL and the Activity (RAW264.7 [3]) was “Active”. The viability at 24 h, 10 µM [4] was greater than 85%, the inhibition (RAW264.7 [5]) was “Active” and the Activity (RAW264.7 [6]) was “inactive”. The Activity (RAW264.7 [7]) was “Active”, the Activity (RAW264.7 [8]) was “Dose-Dependent Effect” and the IC50 (RAW264.7 [8]; RAW264.7, 24 h) was 1730 nM. The inhibition (RAW264.7 [9]) was “Active”, the inhibition (RAW264.7 [10]) was “Active” and the Activity (RAW264.7 [11]) was “inactive”. The inhibition (RAW264.7 [12]) was “Active”, the Activity (Mus musculus [13]) was 0.128 mL and the Activity (Mus musculus [14]) was 0.32 mL. The Activity (Mus musculus [15]) was 0.158 mL, the Activity (Mus musculus [16]) was 0.175 mL and the Activity (Mus musculus [17]) was 0.143 mL. The Activity (Mus musculus [18]) was 0.155 mL, the Activity (Mus musculus [19]) was 0.137 mL and the inhibition in vivo at 1 mg/kg (Mus musculus [20]) was 27.6%. The inhibition in vivo at 10 mg/kg (Mus musculus [21]) was 82.8%, the inhibition in vivo at 10 mg/kg (Mus musculus [22]) was 86.6% and the Activity (Mus musculus [23]) was 0.138 mL. The Activity (Mus musculus [24]) was 0.339 mL, the inhibition in vivo at 30 mg/kg (Mus musculus [25]) was 58.1% and the Activity (Mus musculus [26]) was “Active”. For the same compound, the Activity (Mus musculus [27]) was “Active” and the Activity (Mus musculus [28]) was “Active”.
